Conditions: rat; liver microsomes; pH 7.4; 15.0 min; 1.0 µM

| SMILES | half-life |
| --- | --- |
| Cc1c(-c2nsc(NC(=O)c3cccc(Cl)c3)n2)nnn1-c1ccccc1C(F)(F)F | > 30 min |
| Cc1ccc(C)c(CN2C(=O)c3ccccc3S(=O)c3ccc(C(=O)N4CCN(c5ccccc5F)CC4)cc32)c1 (stereo unspecified) | 2.32 min |
| O=C(CSc1ccccc1)Nc1nnc(COc2ccc(Cl)cc2)s1 | 7 min |
| COc1ccc(-c2nc3c(c(SCC(=O)Nc4ccc(C(=O)O)cc4)n2)Cc2ccccc2O3)cc1 | > 30 min |
| NC(=O)C1CCN(c2ncc(-c3ccc4c(c3)OCCO4)s2)CC1 | 4.94 min |
| CCOc1ccccc1N(CC(=O)N1CCOCC1)S(=O)(=O)c1ccc(SC)cc1 | 1.45 min |
| O=C(c1ccco1)N1CCN(c2nc(-c3ccc(Br)cc3)cs2)CC1 | > 30 min |
| Cc1ccccc1C(C(=O)NC1CCCC1)N(C(=O)Cn1cnc2ccccc21)c1cccc(F)c1 (stereo unspecified) | 1.67 min |
| COc1ccc(Nc2cnc3ccc(-c4ccc(OC)c(OC)c4)nn23)cc1 | 6.77 min |
| Cc1noc(-c2cn(C3CCN(C(=O)c4ccc(OC(F)(F)F)cc4)CC3)nn2)n1 | > 30 min |
| O=C(NC1CCN(c2cc(-c3ccc(Cl)cc3)[nH]n2)C1)c1ccccc1 (stereo unspecified) | > 30 min |
| O=C1CCCC2=C1C(c1[nH]ncc1Br)N=C(Nc1nc3ccccc3o1)N2 (stereo unspecified) | 14 min |
| Cc1ccnc(NC(=S)N2CCN(c3cc(F)cc(Cl)c3)CC2)c1 | 21 min |
| COc1cc(NS(=O)(=O)c2ccc(C)cc2)c(C(=O)Nc2nc(-c3ccccc3)cs2)cc1OC | 9 min |
| CC(C)(O)Cn1c(NC(=O)c2ccc(-c3cn[nH]c3)s2)nc2cc(CN3CCOCC3)ccc21 | 14 min |
| CNCc1ccc(-c2cc(-c3nc(-c4ccc(S(=O)(=O)C(C)C)cc4)cnc3N)on2)cc1 | > 30 min |
| Cc1ccc(S(=O)(=O)Nc2cnccc2C(=O)NCc2ccccc2)cc1 | 5.9 min |
| NC(=O)c1cnc(N[C@@H]2CCCC[C@@H]2N)nc1Nc1cccc(-n2nccn2)c1 | > 30 min |
| c1ccc(-c2csc3ncnc(Sc4nnn(-c5ccccc5)n4)c23)cc1 | 1.5 min |
| O=C(Nc1nc(-c2ccccc2)cs1)c1ccccc1-n1cnnn1 | > 30 min |
| Cc1sc2c(c1C)C(c1ccc(Cl)cc1)=N[C@@H](CC(=O)OC(C)(C)C)c1nnc(C)n1-2 | 6.4 min |
| N#Cc1cccc(Nc2ncc(-c3cccc4ccccc34)o2)c1 | > 30 min |
| Fc1ccc(CNc2ncnc3onc(-c4ccc(F)cc4)c23)cc1 | 28 min |
| CCc1ccc(OC(C)C(=O)N2CCC(c3nc4ccccc4o3)CC2)cc1 (stereo unspecified) | 1.32 min |

| SMILES | half-life |
| --- | --- |
| O=C(Nc1nc(-c2ccccc2)cs1)c1ccncc1NS(=O)(=O)c1c(F)cc(F)cc1F | 5.7 min |
| CCOc1ccccc1N(CC(=O)Nc1cc(OC)ccc1OC)S(=O)(=O)c1ccccc1 | 1.38 min |
| Fc1cc(-c2nc(Nc3ccc(F)c(F)c3)c3ccccc3n2)ccn1 | > 30 min |
| Cc1cc(C)nc(NC(=S)N2CCN(c3ccncc3)CC2)c1 | > 30 min |
| O=C(Nc1nc(-c2ccccc2)cs1)c1ccccc1[N+](=O)[O-] | 17 min |
| O=C(Nc1cc(Cc2ccccc2)ccn1)c1ccc(-c2cccc([N+](=O)[O-])c2)o1 | 4.8 min |
| Cc1cc(-c2nnc3n2CCCCC3)c(C)n1-c1cccc2ccccc12 | 2.1 min |
| Nc1cccc(CNc2ccc(S(=O)(=O)Nc3nccs3)cc2)c1O | > 30 min |
| Nc1ccc(-c2cccc3c(=O)cc(N4CCOCC4)oc23)cc1 | > 30 min |
| FC(F)(F)c1ccccc1-c1nc(NCc2cccc3ccccc23)c2ccccc2n1 | 4.33 min |
| CC(=O)O[C@H]1CC[C@]2(C)C(=CC[C@H]3[C@H]4C[C@H]5O[C@]6(CC[C@H](C)CN6)[C@H](C)[C@@H]5[C@]4(C)CC[C@@H]32)C1 | 1.58 min |
| CCN1CCN(c2ncc3c(n2)CCN(Cc2cc(Br)cs2)C3)CC1 | 2.7 min |
| COc1ncccc1-c1cc2c(ccn2CC2CCN([S+](C)(=O)[O-])CC2)c(N2CCOCC2)n1 | 13.9 min |
| Cc1cccc(-n2cnc3cc(C(=O)N4CCCC(C)(C)C4)ccc32)c1 | 1.6 min |
| CCNC(=O)N1CCCN(c2ccc(C(=O)NCCc3ccc(Cl)cc3Cl)cc2NC(=O)c2cccc(Cl)c2)CC1 | 0.9 min |
| COC(=O)C1=C(C)NC(=O)CC1C(=O)Nc1ccc(Cl)cc1 (stereo unspecified) | 21 min |
| NC(=O)C1CCN(c2ncc(Br)s2)CC1 | > 30 min |
| COc1cccc(CNc2ccc(S(=O)(=O)Nc3cccc4ccncc34)cc2)c1O | 10 min |
| CC[C@H](NC(=O)c1c(O)c(-c2ccccc2)nc2ccccc12)c1ccccc1 | > 30 min |
| Cc1cc(C)nc(NC(=S)N2CCN(c3ccc(Cl)cc3[N+](=O)[O-])CC2)c1 | 15 min |
| CC(=O)N[C@H]1CN(C2CCN(c3ccc(F)cc3C)CC2)C[C@@H]1C1CC1 | 2.3 min |
| Cc1ccnc(NC(=S)N2CCN(c3cccc(Cl)c3Cl)CC2)c1 | 2.4 min |
| NC(=O)C1CCN(c2nnc(-c3ccc4c(c3)OCCCO4)s2)CC1 | > 30 min |
| N=c1c2c(ccn1CCc1ccccc1)Oc1ccc3ccccc3c1C2c1ccccc1 (stereo unspecified) | > 30 min |

| SMILES | half-life |
| --- | --- |
| CCCOC(c1cc2nccc(C(=O)O)c2[nH]1)c1ccccc1Cl (stereo unspecified) | 23.1 min |
| CCN1CCc2c(sc(NC(=O)Nc3ccc(Cl)c(Cl)c3)c2C(N)=O)C1 | > 30 min |
| O=C(c1ccc2c(c1)ncn2-c1ccc(Cl)cc1)N1CCCCC1 | 9.8 min |
| O=C(Cc1cccs1)NCc1nnc2ccc(-c3ccccc3)nn12 | 17.8 min |
| Cc1cccc(S(=O)(=O)Nc2cnccc2C(=O)Nc2nc(-c3ccccc3)cs2)c1 | 6 min |
| CN(C)c1ccc(S(=O)(=O)N2CCCCC2)cc1NS(=O)(=O)c1ccc2ccccc2c1 | 1.34 min |
| CC[C@H]1C=CC=CC[C@@H](C)[C@H](O)[C@@](C)(O)C(=O)[C@@H](C)[C@H](O)[C@@H](C)C(=O)[C@@H](C)[C@H](O)[C@@H](C)C=CC(=O)O[C@@H]2[C@@H](C)[C@H](CC1)O[C@]1(CC[C@H](C)[C@H](C[C@@H](C)O)O1)[C@H]2C | > 30 min |
| CC(=O)OC[C@]12CCC(C)=C[C@H]1O[C@@H]1[C@H](O)[C@@H](OC(C)=O)[C@@]2(C)[C@]12CO2 | > 30 min |
| Cc1ccnc(N=C(N)N2CCN(c3cccc(C(F)(F)F)c3)CC2)c1 | 2.26 min |
| COc1ccc(-n2nc(C3CCN(C(=O)Cc4ccc(F)cc4)CC3)[nH]c2=O)cc1 | 7.87 min |
| Cc1cc(N)c2cc(NC(=O)Nc3ccc4nc(C)cc(N)c4c3)ccc2n1 | > 30 min |
| Fc1ccc(Nc2nc(-c3ccncc3F)nc3ccccc23)cc1F | 20 min |
| Cc1ccc(-c2cc(C(=O)Nc3ccc(-c4noc(=O)[nH]4)cc3)c3ccccc3n2)cc1C | > 30 min |
| NC(=O)C1CCN(c2ncc(-c3cccc(N4CCCC4)c3)s2)CC1 | 15 min |
| CC(C)(C)c1ccc(S(=O)(=O)N2CCC(c3ccncc3)CC2)cc1 | 14.3 min |
| Oc1ccc(Nc2nc(-c3ccncc3)nc3ccccc23)cc1F | 28 min |
| Cc1nn2c(c1-c1ccccc1Oc1ccccc1)N(Cc1ccccc1O)CCC2 | 1.76 min |
| Fc1cc(Nc2nc(-c3ccncc3)nc3ccccc23)ccc1-c1cccc(OC(F)(F)F)c1 | > 30 min |
| O=C(Nc1ccc2oc(-c3ccccc3F)nc2c1)c1ccc([N+](=O)[O-])o1 | > 30 min |
| O=C(Nc1ccc2oc(-c3ccncc3)nc2c1)c1ccccc1Cl | > 30 min |
| Cc1ccccc1C(=O)N1CCc2cc(N3CCC(NC(=O)Cc4ccccc4)C3)ccc21 (stereo unspecified) | 11 min |
| Cc1ccc(S(=O)(=O)NC2CCCCC2)cc1 | 1 min |
| O=C(Nc1nc2cc(C(F)(F)F)ccc2s1)c1ccc(-c2cccc([N+](=O)[O-])c2)o1 | > 30 min |
